ChEMBL document CHEMBL5625251, “Anti-influenza virus activities and mechanism of antrafenine analogs” (Eur J Med Chem, 2023)
Calls of active or inactive are those of the source. The calls are words filed in the database; no cut-off is given here.

Tests used:
[1] = Selectivity index, ratio of CC50 for cytotoxicity against MDCK cells assessed as reduction in cell viability to IC50 for antiviral activity against Influenza A virus A/PR/8/34 infected in MDCK cells MOI 0.01 assessed as inhibition of viral growth; format: toxicity, cell-based; conditions: dog, read-out: Ratio CC50/IC50
[2] = Selectivity index, ratio of CC50 for cytotoxicity against MDCK cells assessed as reduction in cell viability to IC50 for antiviral activity against Influenza A virus A/WSN/33(H1N1) infected in MDCK cells assessed as inhibition of viral growth; format: toxicity, cell-based; conditions: dog, read-out: Ratio CC50/IC50
Influenza A virus [3] = assay: Antiviral activity against Influenza A virus A/WSN/33(H1N1) infected in chicken erythrocytes assessed as reduction in Haemagglutinin level preincubated for 30 mins followed by viral infection and measured after 40 mins; format: functional, organism-based; conditions: Erythrocyte, time 70.0 min
Influenza A virus [4] = assay: Antiviral activity against Influenza A virus A/HK/1/68 infected in MDCK cells MOI 0.01 assessed as inhibition of viral growth pre-infected for 1 hr followed by compound addition and measured 24 hrs post infection by plaque assay; format: functional, organism-based; conditions: A/HK/1/68, MDCK
Influenza A virus [5] = assay: Antiviral activity against Influenza A virus A/WSN/33(H1N1) infected in MDCK cells MOI 0.1 assessed as reduction in viral titre at 12.5 uM pre-infected with cells for 6 hrs followed by compound addition and measured after 4 to 6 hrs post infection by time of addition assay; format: functional; design: scale not given: the % may be the effect or the level left
[6] = molecular target: Polymerase acidic protein (Influenza A virus (A/Puerto Rico/8/1934(H1N1)), UniProt P03433); assay: Binding affinity to C-terminal Influenza A virus Polymerase acidic protein assessed as dissociation constant by MST assay
[7] = Cytotoxicity against African green monkey Vero cells assessed as reduction in cell viability incubated for 48 hrs by MTT assay; format: toxicity, cell-based; conditions: chlorocebus sabaeus
Influenza A virus [8] = assay: Antiviral activity against Influenza A virus A/WSN/33(H1N1) infected in MDCK cells assessed as inhibition of viral growth pre-infected for 1 hr followed by compound addition and measured 24 hrs post infection by plaque assay; format: functional, organism-based
[9] = Selectivity index, ratio of CC50 for cytotoxicity against African green monkey Vero cells assessed as reduction in cell viability to IC50 for inhibition of Influenza A virus A/WSN/33(H1N1) Ribonucleoprotein transfected in Vero cells; format: toxicity, cell-based; conditions: read-out: Ratio CC50/IC50
[10] = Cytotoxicity against MDCK cells assessed as reduction in cell viability incubated for 48 hrs by MTT assay; format: toxicity, cell-based, Canis lupus familiaris; conditions: dog
[11] = Inhibition of Influenza A virus A/WSN/33(H1N1) Ribonucleoprotein transfected in Vero cells incubated for 48 hrs by spectrophotometer analysis; format: cell-based
Nucleoprotein = Nucleoprotein (Influenza A virus (strain A/Wilson-Smith/1933 H1N1), UniProt P15682); assay: Binding affinity to Influenza A virus Nucleoprotein assessed as dissociation constant by MST assay
Sequence of Nucleoprotein (P15682 whole entry): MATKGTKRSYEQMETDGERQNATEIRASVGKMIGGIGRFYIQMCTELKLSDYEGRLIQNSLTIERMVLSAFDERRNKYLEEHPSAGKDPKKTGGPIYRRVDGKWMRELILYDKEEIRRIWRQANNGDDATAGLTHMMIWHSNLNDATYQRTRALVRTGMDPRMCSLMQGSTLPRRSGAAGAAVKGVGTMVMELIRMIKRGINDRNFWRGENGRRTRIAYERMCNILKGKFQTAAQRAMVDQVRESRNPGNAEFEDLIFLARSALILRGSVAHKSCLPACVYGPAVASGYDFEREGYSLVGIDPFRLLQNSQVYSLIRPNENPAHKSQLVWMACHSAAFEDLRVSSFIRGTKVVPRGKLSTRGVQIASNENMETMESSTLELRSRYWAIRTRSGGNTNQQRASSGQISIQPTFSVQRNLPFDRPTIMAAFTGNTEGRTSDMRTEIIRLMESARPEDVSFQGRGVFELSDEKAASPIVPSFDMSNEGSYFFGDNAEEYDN

Influenza A virus [12] = assay: Antiviral activity against Influenza A virus B/Florida/4/06 infected in MDCK cells MOI 0.01 assessed as inhibition of viral growth pre-infected for 1 hr followed by compound addition and measured 24 hrs post infection by plaque assay; format: functional, organism-based; conditions: B/Florida/4/06, MDCK
Influenza A virus [13] = assay: Antiviral activity against Influenza A virus A/WSN/33(H1N1) infected in MDCK cells MOI 0.1 assessed as reduction in viral titre at 12 uM pre-infected with cells for 6 hrs followed by compound addition and measured after 2 to 4 hrs post infection by time of addition assay; format: functional, organism-based
Influenza A virus [14] = assay: Antiviral activity against Influenza A virus A/WSN/33(H1N1) infected in MDCK cells MOI 0.1 assessed as inhibition of viral growth at 12.5 uM pre-infected with cells for 6 hrs followed by compound addition and measured after 2 to 4 hrs post infection by time of addition assay; format: functional, organism-based
Influenza A virus [15] = assay: Antiviral activity against Influenza A virus A/WSN/33(H1N1) infected in MDCK cells MOI 0.1 assessed as reduction in viral titre at 12.5 uM pre-infected with cells for 6 hrs followed by compound addition and measured after 6 to 8 hrs post infection by time of addition assay; format: functional, organism-based
Influenza A virus [16] = assay: Antiviral activity against Influenza A virus A/WSN/33(H1N1) infected in MDCK cells assessed as reduction in virus-induced cytopathic effect at 12.5 uM pre-infected with cells for 1 hrs followed by compound addition and measured after 2 days by MTT assay; format: functional, organism-based; conditions: time 2.0 day
[17] = Selectivity index, ratio of CC50 for cytotoxicity against MDCK cells assessed as reduction in cell viability to IC50 for antiviral activity against Influenza A virus A/HK/1/68 infected in MDCK cells MOI 0.01 assessed as inhibition of viral growth; format: toxicity, cell-based; conditions: dog, read-out: Ratio CC50/IC50
[18] = Selectivity index, ratio of CC50 for cytotoxicity against MDCK cells assessed as reduction in cell viability to IC50 for antiviral activity against Influenza A virus B/Florida/4/06 infected in MDCK cells MOI 0.01 assessed as inhibition of viral growth; format: toxicity, cell-based; conditions: dog, read-out: Ratio CC50/IC50
Influenza A virus [19] = assay: Antiviral activity against Influenza A virus A/WSN/33(H1N1) infected in chicken erythrocytes assessed as reduction in neuraminidase level incubated for 2 hrs; format: functional, organism-based; conditions: Erythrocyte
Influenza A virus [20] = assay: Antiviral activity against Influenza A virus A/WSN/33(H1N1) infected in MDCK cells MOI 0.1 assessed as reduction in viral titre at 12.5 uM pre-infected with cells for 6 hrs followed by compound addition and measured after 2 hrs post infection by time of addition assay; format: functional, organism-based
Influenza A virus [21] = assay: Antiviral activity against Influenza A virus A/PR/8/34 infected in MDCK cells MOI 0.01 assessed as inhibition of viral growth pre-infected for 1 hr followed by compound addition and measured 24 hrs post infection by plaque assay; format: functional, organism-based; conditions: A/PR/8/34, MDCK

For `O=C(NCCCN1CCOCC1)c1ccccc1Nc1ccnc2ccc(Cl)cc12`, which selectivity ratio [1] is on record?
The selectivity ratio was greater than 13.

And the selectivity ratio [2]?
The selectivity ratio was greater than 16.

What about the Activity (Influenza A virus [3]) of the same molecule?
Its Activity is “inactive”.

And the IC50 (Influenza A virus [4])?
The IC50 was 3.31 µM.

And the Activity (Influenza A virus [5])?
The Activity was 5%.

What about the Kd [6] of the same molecule?
Its Kd is 28.8 µM.

And the CC50 at 48 h [7]?
The CC50 at 48 h was 31.4 µM.

And the IC50 (Influenza A virus [8])?
Its IC50 is 3.21 µM.

And the selectivity ratio [9]?
The selectivity ratio was greater than 3.

And the CC50 at 48 h [10]?
Its CC50 at 48 h is greater than 50 µM.

What about the IC50 [11] of the same molecule?
The IC50 was 11.8 µM.

And the Kd (Nucleoprotein)?
The Kd was 33 µM.

What about the IC50 (Influenza A virus [12]) of the same molecule?
Its IC50 is 3.32 µM.

And the Activity (Influenza A virus [13])?
Its Activity is “Active”.

What about the inhibition (Influenza A virus [14]) of the same molecule?
Its inhibition is “Active”.

And the Activity (Influenza A virus [15])?
The Activity was “inactive”.

And the Activity (Influenza A virus [16])?
Its Activity is “Active”.

What about the selectivity ratio [17] of the same molecule?
The selectivity ratio was greater than 15.

What about the selectivity ratio [18] of the same molecule?
The selectivity ratio was greater than 15.

What about the Activity (Influenza A virus [19]) of the same molecule?
Its Activity is “inactive”.

And the Activity (Influenza A virus [20])?
The Activity was “Active”.

What about the IC50 (Influenza A virus [21]) of the same molecule?
The IC50 was 3.94 µM.
